Data on one compound can be found in patent US11180518B2, “Phenyl-heterocycle-phenyl derivatives for use in the treatment or prevention of melanoma” (MAX-PLANCK-GESELLSCHAFT ZUR FÖRDERUNG DER WISSENSCHAFTEN …, priority 2017, dated 2021).

SMILES strings stand for the structures. Like-named read-outs stand apart in the source and are kept apart here.

The conditions of data set [1]: in vivo; cited from earlier work.
Data set [2] relates to WM983-A melanoma cells. Put plainly: Melanoma cell proliferation analysis (hemocytometer counting). The format is cell-based, human. The source says:
(§1) To assess the possible impact of anle138b as well as anle138c on the different melanoma cell lines, WM983-A, WM983-B and SK-MEL-5, we treated them with increasing doses of either compound, dissolved in dimethyl sulfoxide (DMSO), and added to serum-free culture medium. […] We also observed that treatment with anle138b caused a more rapid morphological change than anle138c. To determine whether the effect of the two anle compounds was related to the amount of α-synuclein produced by the cells, we compared the proliferation of the (VGP) WM983-A high-level and the (RGP/VGP) WM1158 low-level α-synuclein-producing melanoma cells over a period of 96 hr, with replenishment of each anle compound at 48 hr (FIGS. 8A and B).
To compare how rapidly anle138b affected the proliferation of melanoma cells, expressing α-synuclein at a high level, we treated the melanoma cell lines, WM983-A (VGP) and WM983-B (MGP), for 24, 48 or 72 hr with 10 μM of anle138b, with replenishment of the compound (10 μM) at 48 hr.
10 or 30 mM stock solutions of anle138b or anle138c were made in DMSO. […] Proliferation of melanoma cells that had received DMSO only, or were treated with anle138b was determined by counting the cells with a hemocytometer.

Data set [3] can be described thus: Pharmacokinetic (HPLC) analysis of resected xenograft tumors. The format is in vivo, nude mice. The settings on record: female, CAnN.Cg-Foxn1nu/Crl nude, mouse, tumor (WM983-B human melanoma xenograft, oral, 2 g of anle138b/kg of food pellets), food pellets with 2 g/kg for seven days, read-out: level in the tumor. From the text: To determine whether the DPP compound, anle138b, when administered systemically to human MGP melanoma cells grown as subcutaneous tumors in nude mice, would reach the tumors, we performed the following study. A nude mouse, bearing high-level α-synuclein-expressing (MGP) WM983-B human melanoma xenografts on its lower right and on its lower left dorsal side, received, for seven days, food pellets mixed with anle138b. A second nude mouse, also bearing WM983-B tumors on its lower right as well as on its lower left dorsal side, received, for seven days, the same type of food pellets not containing anle138b. After the mice were sacrificed, we performed the following analyses on the post-mortem resected and thereafter, cryopreserved tumors. […]
Cryopreserved WM983-B human melanoma xenograft tissues were brought to 4° C. prior to their transfer into Precellys CKMix—2 mL tissue homogenizing tubes, and homogenization in 0.5 to 1.00 ml acetonitrile using a Precellys Evolution Super homogenizer (Bertin Instruments, Montigny-le-Bretonneux, France). […] The effluent was monitored for UV absorption at 260 nm. Samples were quantitated using peak area ratio of compounds to external standard.
For orientation: A xenograft is tissue or cells of one species grown in another, often human tumour cells in immunodeficient mice.

Data set [4] concerns WM983-B melanoma cells. The experiment in a line: Immunoblot analysis of p62/SQSTM1 expression. The format is cell-based, human. Particulars: 7.5 μM. The method, then:
For the analysis of p62/SQSTM1 protein expression, WM983-B melanoma whole-cell lysates were separated on 12% SDS-PAGE, transferred onto nitrocellulose membrane, blocked with 3% bovine serum albumin (BSA), probed with an anti-p62/SQSTM1 antibody (Cell Signaling Technology, Inc. Danvers, Mass., USA), followed by incubation with a corresponding HPR-conjugated secondary antibody and chemiluminescent substrate (EMD Millipore, Billerica, Mass., USA). Protein loading was determined by secondary probing with an anti-GAPDH antibody (Thermo Fisher Scientific Inc.).

Data set [5] relates to WM1158 melanoma cells. Put plainly: Melanoma cell proliferation analysis. The format is cell-based, human.
Description: as §1
10 or 30 mM stock solutions of anle138b or anle138c were made in DMSO. Since anle138b as well as anle138c bind strongly to FBS, melanoma cells, plated for 24 hr in tissue-culture medium containing 10% FBS, were rinsed three times with serum-free medium prior to addition of anle138b, anle138c, or an equivalent volume of DMSO only in serum-free medium. Forty-eight hours later, the cell culture medium was removed, followed by addition of an equivalent dose of anle138b or anle138c, or DMSO only in serum-free culture medium. […] Proliferation of melanoma cells that had received DMSO only, or were treated with anle138b was determined by counting the cells with a hemocytometer.

Data set [6] deals with WM852 melanoma cells. The experiment in a line: LDH cytotoxicity analysis. The settings on record: 2, 5, 10 or 15 μM for 96 hr, replenishment at 48 hr.
Description: Replicates of WM983-B as well as WM852 melanoma cells were plated at 3×10^5 cells per well in 35 mm tissue culture plates. Twenty-four hours later, the cells were rinsed three times with serum-free medium, followed by addition of increasing doses of anle138b or DMSO only. Forty-eight hours later, the cell culture medium was removed, followed by addition of equivalent doses of anle138b or DMSO only in serum-free medium. Culture medium, collected 48 hr later, was centrifuged to pellet and remove cellular debris. Using a PHERAstar FS microplate reader (BMG LABTECH GmbH, Ortenberg, Germany) and spectrophotometric absorbance measurement, the release of LDH enzyme activity into the tissue culture medium was determined with an LDH cytotoxicity assay kit (Roche Diagnostics Deutschland GmbH, Mannheim, Germany). […] Cells from the DMSO controls were trypsinized, counted, and lysed according to the manufacturer's instructions.
Data set [7] deals with WM983-B melanoma cells. Put plainly: Autophagy: LC3 immunofluorescence. In kind it is cell-based, human. The method, then:
We observed a clear effect of the anle compounds on the autophagy pathway of the melanoma cells. […] Following addition of anle138c, the effect was seen later with levels of 8% at 24 hr and 78% after 96 hr.
Autophagy. WM983-B and SK-MEL-5 cells that for 24 or 48 hr were treated with anle138 or had received DMSO only were fixed for 20 min with 3.7% PFA, permeabilized, blocked, and probed with an anti-LC3B [clone 2G6] antibody (nanoTools Antikörpertechnik GmbH & Co. KG, Teningen, Germany), followed by a donkey anti-mouse Alexa-488 secondary antibody and Draq5 DNA counterstain. Confocal image stacks were obtained with a 63×NA 1.2 objective on a Zeiss LSM 510 Meta confocal microscope.

In the case of `Brc1cccc(-c2cc(-c3ccc4c(c3)OCO4)n[nH]2)c1` [anle138b, 5-(3-Bromophenyl)-3-(3,4-methylenedioxyphenyl)-1H-pyrazole], in data set [1], the “oral bioavailability and blood-brain-barrier penetration” value was “excellent”. The “proliferation of residual cells after removal of compound” value in data set [2] (removal of compound-containing medium at 96 hr, then serum-free medium) is listed as “not able to proliferate again”. Moreover, the proliferation result in data set [2] (single dose of 10 μM, 24 hr) is given as “inhibited the proliferation of both cell lines to a significant extent”; in data set [5] (over 96 hr, replenishment at 48 hr) it was “reduced proliferation only after 48 hr”. Moreover, the concentration at 7 days is 110 µM in data set [3] (tumor from left dorsal side (218 mg)) and 125 µM in data set [3] (tumor from right dorsal side (57 mg)). Also, the p62/SQSTM1 expression result in data set [4] (48 and 72 hr, replenishment at 48 hr, vs DMSO only) was “noticeably elevated”; in data set [4] (24 hr), “did not lead to an increase”. In addition, the “recovery of proliferation after removal of compound” value in data set [5] (removal at 96 hr, fresh culture medium containing serum) is “able to recover proliferation normally”. Moreover, the “number of cells killed (LDH release) compared with WM983-B” value in data set [6] was “significantly lower”. Further, the “cells with punctuate upregulation of LC3” value in data set [7] (24 hr, cells still attached) is listed as “about 60%”; in data set [7] (48 hr, cells remaining on the dish), 95%.
